The record followed here is patent US8034931B2, “Process for producing substituted aminoquinazolinone derivative, intermediate therefor, and pest control agent” (Nihon Nohyaku Co., Ltd., priority 2003, dated 2011).

Common to all, as to type: in vivo
For data set [1], the system named is White Peach Scale (Pseudaulacaspis pentagona). Kind of data set: Insecticidal effect on white peach scale, sprayed potato tuber (Test Examples 3 and 5). The settings on record: 100 ppm liquid chemical, potato tuber with first-instar larvae, fourteen days after the treatment. An excerpt:
Insecticidal Effect on White Peach Scale (Pseudaulacaspis pentagona)
A preparation containing each compound of the present invention listed in Tables 2 to 4 or each comparative compound as an active ingredient was dispersed in and diluted with water to obtain a 100 ppm liquid chemical. A potato tuber with first-instar larvae of white peach scale as parasites was sprayed with the liquid chemical with a spray gun. Fourteen days after the treatment, the living insects were counted. In the same manner as in Test Example 2, the corrected mortality was calculated and the insecticidal effect was judged.
Insecticidal Effect on White Peach Scale (Pseudaulacaspis pentagona) at a Low Dosage
The same test as in Test Example 3 was carried out except for changing the concentration of the liquid chemical to 30 ppm.

The subject of data set [2] is Greenhouse Whitefly (Trialeuroddes vaporariorum). Kind of data set: Insecticidal effect on greenhouse whitefly, sprayed tomato leaf (Test Examples 2 and 4). The settings on record: for Test Example 4: controlling effect at a low dosage (corrected mortality): 3 ppm liquid chemical, otherwise same as Test Example 2; for Test Example 2: insecticidal effect (corrected mortality): 100 ppm liquid chemical, sprayed tomato leaf, 20 adult whiteflies, four days after the inoculation. An excerpt:
Insecticidal Effect on Greenhouse Whitefly (Trialeuroddes vaporariorum)
A preparation containing each compound of the present invention listed in Tables 2 to 4 or each comparative compound as an active ingredient was dispersed in and diluted with water to obtain a 100 ppm liquid chemical. A tomato leaf set in a 20-ml vial with its stalk immersed in water was sprayed with the liquid chemical with a spray gun on a turntable. After air-dryness, the treated leaf was placed in a glass cylinder and inoculated with 20 adult greenhouse whiteflies. After the treatment, the glass cylinder was placed in a greenhouse. Four days after the inoculation, the living insects were counted. The corrected mortality was calculated according to the following equation and the insecticidal effect was judged according to the criterion shown below.
[formula] Criterion for Judgment:
Insecticidal Effect on Greenhouse (Trialeuroddes vaporariorum) at a Low Dosage
The same test as in Test Example 2 was carried out except for changing the concentration of the liquid chemical to 3 ppm.

Data set [3] relates to Green Peach Aphid (Myzus persicae). Kind of data set: Insecticidal effect on green peach aphid, foliar spray on potted Chinese cabbage (Test Example 1). The conditions noted are these: 500 ppm liquid chemical, sprayed on Chinese cabbage stalks and leaves, six days after the spraying. From the text:
Insecticidal Effect on Green Peach Aphid (Myzus persicae)
A Chinese cabbage plant was planted in each of plastic pots with a diameter of 8 cm and a height of 8 cm, and green peach aphids were propagated on the plant, after which the parasites in each pot were counted. A preparation containing each compound of the present invention listed in Tables 2 to 4 or each comparative compound as an active ingredient was dispersed in and diluted with water to obtain a 500 ppm liquid chemical. The stalks and leaves of the potted Chinese cabbage plants were sprayed with the liquid chemical and air-dried, and then the pots were stored in a greenhouse. Six days after the spraying, green peach aphids parasitic on each Chinese cabbage plant were counted and the control efficacy was calculated by the following equation, whereby the insecticidal effect was judged according to the criterion shown below. Control efficacy=100−{(T×Ca)/(Ta×C)}×100 • Ta: number of parasites before spraying in treated group, • T: number of parasites after spraying in treated group, • Ca: number of parasites before spraying in untreated group, • C: number of parasites after spraying in untreated group.

In the case of `CC(=O)N1C(=O)N(N=Cc2cccnc2)Cc2ccccc21` [A, 1-acetyl-3-(3-pyridylmethylideneamino)-3,4-dihydro-2(1H)-quinazolinone, reference compound], the “Test Example 3: insecticidal effect (corrected mortality)” value (shortened to “Test Example 3: insecticidal effect”) in data set [1] is given as “B (Corrected mortality 99-90%)”. Also, in data set [2], the “Test Example 4: controlling effect at a low dosage (corrected mortality)” value is recorded as “C (Corrected mortality 89-80%)” and the “Test Example 2: insecticidal effect (corrected mortality)” value (“Test Example 2: insecticidal effect” below) is recorded as “A (Corrected mortality 100%)”. Also, the “Test Example 1: insecticidal effect (control efficacy)” value (from here on “Test Example 1: insecticidal effect”) in data set [3] is reported as “A (Control efficacy 100%)”.

With `CC(=O)N1C(=O)N(NCc2cccnc2)Cc2cc(Br)ccc21` [B, 1-acetyl-3-(3-pyridylmethylamino)-3,4-dihydro-6-bromo-2(1H)-quinazolinone, reference compound], the “Test Example 3: insecticidal effect” value in data set [1] is “C (Corrected mortality 89-80%)”. In data set [2], the “Test Example 4: controlling effect at a low dosage (corrected mortality)” value is recorded as “D (Corrected mortality 79-50%)” and the “Test Example 2: insecticidal effect” value is “C (Corrected mortality 89-80%)”. Besides, the “Test Example 1: insecticidal effect” value in data set [3] is reported as “A (Control efficacy 100%)”.

In the case of `CCN1C(=O)N(N=Cc2cccnc2)Cc2cc(C(F)(C(F)(F)F)C(F)(F)F)ccc21` [compound 2], the “Test Example 3: insecticidal effect” value in data set [1] was “A (Corrected mortality 100%)”. The “Test Example 2: insecticidal effect” value in data set [2] was “A (Corrected mortality 100%)”. Besides, the “Test Example 1: insecticidal effect” value in data set [3] is reported as “A (Control efficacy 100%)”.

`COCN1C(=O)N(N=Cc2cccnc2)Cc2cc(C(F)(C(F)(F)F)C(F)(F)F)ccc21` [compound 4]: the “Test Example 3: insecticidal effect” value in data set [1] was “A (Corrected mortality 100%)”. Besides, the “Test Example 2: insecticidal effect” value in data set [2] was “A (Corrected mortality 100%)”. Moreover, the “Test Example 1: insecticidal effect” value in data set [3] was “A (Control efficacy 100%)”.

`CCOCN1C(=O)N(N=Cc2cccnc2)Cc2cc(C(F)(C(F)(F)F)C(F)(F)F)ccc21` [compound 5]: in data set [1], the “Test Example 3: insecticidal effect” value is “A (Corrected mortality 100%)”. In addition, in data set [2], the “Test Example 2: insecticidal effect” value is recorded as “A (Corrected mortality 100%)”. Moreover, in data set [3], the “Test Example 1: insecticidal effect” value is on record as “A (Control efficacy 100%)”.

For `N#CCN1C(=O)N(N=Cc2cccnc2)Cc2cc(C(F)(C(F)(F)F)C(F)(F)F)ccc21` [compound 6], the “Test Example 3: insecticidal effect” value in data set [1] was “A (Corrected mortality 100%)”. Moreover, the “Test Example 2: insecticidal effect” value in data set [2] was “A (Corrected mortality 100%)”. Also, the “Test Example 1: insecticidal effect” value in data set [3] is “A (Control efficacy 100%)”.

As for `O=CN1C(=O)N(N=Cc2cccnc2)Cc2cc(C(F)(C(F)(F)F)C(F)(F)F)ccc21` [compound 7], the “Test Example 3: insecticidal effect” value in data set [1] is given as “A (Corrected mortality 100%)”. In addition, the “Test Example 2: insecticidal effect” value in data set [2] was “A (Corrected mortality 100%)”. Also, the “Test Example 1: insecticidal effect” value in data set [3] is on record as “A (Control efficacy 100%)”.

As to `CCC(=O)N1C(=O)N(N=Cc2cccnc2)Cc2cc(C(F)(C(F)(F)F)C(F)(F)F)ccc21` [compound 9], the “Test Example 3: insecticidal effect” value in data set [1] is “A (Corrected mortality 100%)”. Further, the “Test Example 2: insecticidal effect” value in data set [2] was “A (Corrected mortality 100%)”. In addition, the “Test Example 1: insecticidal effect” value in data set [3] is given as “A (Control efficacy 100%)”.

Regarding `CCCC(=O)N1C(=O)N(N=Cc2cccnc2)Cc2cc(C(F)(C(F)(F)F)C(F)(F)F)ccc21` [compound 10], in data set [1], the “Test Example 3: insecticidal effect” value was “A (Corrected mortality 100%)”. Besides, in data set [2], the “Test Example 2: insecticidal effect” value is “A (Corrected mortality 100%)”. The “Test Example 1: insecticidal effect” value in data set [3] was “A (Control efficacy 100%)”.

Take `CC(C)C(=O)N1C(=O)N(N=Cc2cccnc2)Cc2cc(C(F)(C(F)(F)F)C(F)(F)F)ccc21` [compound 11]: the “Test Example 3: insecticidal effect” value in data set [1] was “A (Corrected mortality 100%)”. Besides, in data set [2], the “Test Example 2: insecticidal effect” value is reported as “A (Corrected mortality 100%)”. Besides, the “Test Example 1: insecticidal effect” value in data set [3] is “A (Control efficacy 100%)”.
